Test results as given in patent US7312248B2, “Control of parasites in animals by the use of novel trifluoromethanesulfonanilide oxime ether derivatives” (Schering-Plough Animal Health Corporation, priority 2004, dated 2007).
Like-named read-outs stand apart in the source and are kept apart here.

Test system: cat flea (Ctenocephalides felis)
Assay: whole plant or invertebrate
Type: in vivo
Details: for mortality at 1.26 µg/cm2, 1.26 µg/cm2 / mortality at 1.26 µg/cm2: Ctenocephalides felis
Procedure: b) Ctenocephalides felis Adulticide Assay: C. felis Single Dose Screen
Mortality of fleas was the primary endpoint in the assay. Fleas were considered dead if they didn't move or were on their sides and unable to walk or right themselves. […] The concentration chosen (1.26 μg/cm^2) was higher than that known to kill 90% of cat fleas (LC90) using the reference compound, permethrin.
The test species was the cat flea (Ctenocephalides felis). The strain used was obtained from external suppliers as pupae and held in the laboratory under testing conditions until the adults had emerged. Fifteen (15) fleas were used in a minimum of four replicates against a single concentration level (approximately 60 fleas). The insects were selected to be in the adult life stage, aged between 3 and 7 days post emergence.
The compounds to be tested were supplied as solids and were prepared in acetone as described below prior to testing. Samples were stored in a refrigerator (5±1° C.) unless otherwise specified.
During the mortality testing, the temperature was maintained at 25±1° C. Humidity was maintained at 75±5%. The base (area=159 mm^2) of a 100 mL glass Erlenmeyer (conical) flask provided the treatment surface. Flasks were pretreated with Coatasil™ glass treatment to maximise bio-availability of test compounds by preventing them from binding to glass the surface. The base of the 100 mL Erlenmeyer flask was treated with 0.5 mL of test sample in acetone and gently swirled. This volume was sufficient to cover the base of the flask. Flasks were left to dry for 24 hours before flea exposure.
Adult cat fleas were placed into a sorting chamber, which allowed fleas to jump into the Erlenmeyer flasks. Fifteen (15) adult cat fleas were collected in each flask. The top of the flasks were then covered in Parafilm™ and small holes were made to allow gas exchange. A 0.5 mL volume of acetone as a solvent control was applied to the base of an Erlenmeyer flask and the testing proceeded in the same manner described above. Cat fleas in the treatment containers were held under testing conditions for 8, 24 and/or 48 hours. Mortality was recorded at 8, 24, 8 and 24, or 24 and 48 hours. Pooled 8, 24, 8 and 24, and 24 and 48 hour mortality data were converted to percentages and are summarized by Tables 14, 14A and 14B, below.

[1] = 24 h, read-out: C. felis Mortality (%) 24 h, 24 h, Laboratory 2 B data
[2] = 48 h, read-out: C. felis Mortality (%) 48 h, 48 h, Laboratory 2 B data
[3] = 8 h, read-out: C. felis Mortality (%) 8 h, 8 h, Laboratory 2 B data
[4] = 8 h, read-out: Ctenocephalides felis Mortality (%) 8 h
[5] = 24 h, read-out: Ctenocephalides felis Mortality (%) 24 h
[6] = 48 h, read-out: Ctenocephalides felis Mortality (%) 48 h
[7] = 24 h, single concentration 1.26 μg/cm^2 on treated glass, adult fleas, Laboratory 2 B data, read-out: Ctenocephalides felis Mortality (%) 24 h

## CC/C(=N\OCC=C(C)C)c1cc(Cl)ccc1NS(=O)(=O)C(F)(F)F [Compound 250]
[1]
  mortality at 1.26 µg/cm2, 1.26 µg/cm2: 97%
[2]
  mortality at 1.26 µg/cm2, 1.26 µg/cm2: 100%

## CCCO/N=C(\c1ccccc1)c1cc(Cl)ccc1NS(=O)(=O)C(F)(F)F [Compound 251]
24 h, Laboratory 2 B data
  C. felis Mortality (%) 24 h: 32^B %
[2]
  mortality at 1.26 µg/cm2, 1.26 µg/cm2: 100%

## CCCO/N=C(\c1ccccc1)c1cc(Cl)ccc1NS(=O)(=O)C(F)(F)F [Compound 252]
24 h, Laboratory 2 B data
  C. felis Mortality (%) 24 h: 15^B %
48 h, Laboratory 2 B data
  C. felis Mortality (%) 48 h: 100%

## CC/C(=N\OC(C)C1CC1)c1cc(Cl)ccc1NS(=O)(=O)C(F)(F)F (stereo not shown) [Compound 254]
[1]
  mortality at 1.26 µg/cm2, 1.26 µg/cm2: 84%
[2]
  mortality at 1.26 µg/cm2, 1.26 µg/cm2: 100%

## CC/C(=N\OC(CC)c1ccccc1)c1cc(Cl)ccc1NS(=O)(=O)C(F)(F)F (stereo not shown) [Compound 256]
[3]
  mortality at 1.26 µg/cm2, 1.26 µg/cm2: 0%
[1]
  mortality at 1.26 µg/cm2, 1.26 µg/cm2: 84%

## C/C(=N\OC(C)c1ccc(Cl)cc1Cl)c1cc(Cl)ccc1NS(=O)(=O)C(F)(F)F (stereo not shown) [Compound 258]
[3]
  mortality at 1.26 µg/cm2, 1.26 µg/cm2: 8%
[1]
  mortality at 1.26 µg/cm2, 1.26 µg/cm2: 88%

## CC/C(=N\OC(C)c1ccc(Cl)cc1Cl)c1cc(Cl)ccc1NS(=O)(=O)C(F)(F)F (stereo not shown) [Compound 259]
[3]
  mortality at 1.26 µg/cm2, 1.26 µg/cm2: 0%
[1]
  mortality at 1.26 µg/cm2, 1.26 µg/cm2: 71%

## O=S(=O)(Nc1ccc(Cl)cc1-c1cc(C2CCCCC2)on1)C(F)(F)F [Compound 292]
[4]
  mortality at 1.26 µg/cm2: 15%
[5]
  mortality at 1.26 µg/cm2: 92%

## O=S(=O)(Nc1ccc(Cl)cc1-c1noc2c1CCCC2)C(F)(F)F [Compound 294]
[4]
  mortality at 1.26 µg/cm2: 3%
[5]
  mortality at 1.26 µg/cm2: 40%

## CCCc1conc1-c1cc(Cl)ccc1NS(=O)(=O)C(F)(F)F [Compound 295]
[4]
  mortality at 1.26 µg/cm2: 0%
[5]
  mortality at 1.26 µg/cm2: 44%

## C/C(=N\OCc1ccc(Cl)cc1)c1cc(Cl)ccc1N(C)S(=O)(=O)C(F)(F)F [Compound 296]
[5]
  mortality at 1.26 µg/cm2: 0%
[6]
  mortality at 1.26 µg/cm2: 19%

## CC/C(=N\OCc1ccc(Cl)cc1)c1cc(Cl)ccc1N(C)S(=O)(=O)C(F)(F)F [Compound 297]
[5]
  mortality at 1.26 µg/cm2: 1%
[6]
  mortality at 1.26 µg/cm2: 28%

## C/C(=N\Oc1ccc(F)cc1)c1cc(Cl)ccc1N(C)S(=O)(=O)C(F)(F)F [Compound 298]
[5]
  mortality at 1.26 µg/cm2: 1%
[6]
  mortality at 1.26 µg/cm2: 12%

## CCOCN(c1ccc(Cl)cc1/C(C)=N/Oc1ccc(F)cc1)S(=O)(=O)C(F)(F)F [Compound 299]
[5]
  mortality at 1.26 µg/cm2: 0%
[6]
  mortality at 1.26 µg/cm2: 56%

## CC/C(=N\OCC1CCCCC1)c1cc(Cl)ccc1N(C)S(=O)(=O)C(F)(F)F [Compound 300]
[5]
  mortality at 1.26 µg/cm2: 0%
[6]
  mortality at 1.26 µg/cm2: 9%

## CCOCN(c1ccc(Cl)cc1/C(CC)=N/OCC1CCCCC1)S(=O)(=O)C(F)(F)F [Compound 301]
[5]
  mortality at 1.26 µg/cm2: 1%
[6]
  mortality at 1.26 µg/cm2: 19%

## CC/C(=N\OCC1CCCCC1)c1cc(Cl)ccc1N(COC(=O)C(C)(C)C)S(=O)(=O)C(F)(F)F [Compound 304]
[5]
  mortality at 1.26 µg/cm2: 0%
[6]
  mortality at 1.26 µg/cm2: 81%

## C/C(=N\Oc1ccc(F)cc1)c1cc(Cl)ccc1N(COC(=O)C(C)(C)C)S(=O)(=O)C(F)(F)F [Compound 305]
[5]
  mortality at 1.26 µg/cm2: 1%
[6]
  mortality at 1.26 µg/cm2: 21%

## CCOC(=O)N(c1ccc(Cl)cc1/C(CC)=N/OCc1ccc(Cl)cc1)S(=O)(=O)C(F)(F)F [Compound 306]
[7]
  mortality at 1.26 µg/cm2: 0%
48 h, single concentration 1.26 μg/cm^2 on treated glass, adult fleas, Laboratory 2 B data, read-out: Ctenocephalides felis Mortality (%) 48 h
  mortality at 1.26 µg/cm2: 48%

## CCCC(=O)OCN(c1ccc(Cl)cc1/C(CC)=N/Oc1ccc(Cl)cc1)S(=O)(=O)C(F)(F)F [Compound 309]
[4]
  mortality at 1.26 µg/cm2: 3%
[5]
  mortality at 1.26 µg/cm2: 86%

## CC/C(=N\OCC1CCCCC1)c1cc(Cl)ccc1N(C(C)=O)S(=O)(=O)C(F)(F)F [Compound 311]
[4]
  mortality at 1.26 µg/cm2: 14%
[5]
  mortality at 1.26 µg/cm2: 76%

## CCCC(=O)OCN(c1ccc(Cl)cc1/C(C)=N/Oc1ccc(F)cc1)S(=O)(=O)C(F)(F)F [Compound 312]
[4]
  mortality at 1.26 µg/cm2: 11%
[5]
  mortality at 1.26 µg/cm2: 89%

## CCOC(=O)N(c1ccc(Cl)cc1/C(CC)=N/OCC1CCCCC1)S(=O)(=O)C(F)(F)F [Compound 313]
8 h, single concentration 1.26 μg/cm^2 on treated glass, adult fleas, Laboratory 2 B data, read-out: Ctenocephalides felis Mortality (%) 8 h
  mortality at 1.26 µg/cm2: 0%
[7]
  mortality at 1.26 µg/cm2: 59%
